Reference: patent publication US11596692B1 (Incyte Corporation, priority 2018, dated 2023)
Read-outs that look alike come from different tables or passages of the source.

Tested on: IRF3
Assay: IRF3 activation assay in THP-1 Dual cells
Type: cell-based
Conditions: Homo sapiens, read-out: THP1 IRF3 EC50
Procedure: THP-1 Dual Cells (Invivogen) were maintained in RPMI1640 medium with addition of 10% FBS, 100 μg/ml zeocin, 10 μg/ml blasticidin. Cells were added in a 96-well flat bottom assay plate at 100,000 per well in 100 μL complete RPMI medium. Test compounds were prepared by serial dilution in complete RPMI medium and 100 μL test compounds were transferred to each corresponding well. The assay plate was incubated at 37° C., 5% CO2 for 24 hours. After the overnight incubation, 20 μL of the culture supernatants were collected, followed by addition of 180 μL of QUANTI-Blue (Invivogen) to assess IRF3 activity. The amount of IRF3 activation was assessed by reading the absorbance at 620-655 nm with a microplate reader 2 hours later. The culture supernatant from the untreated THP-1 cells was used as the negative control. EC50 determination was performed by fitting the curve of percent control activity versus the log of the compound concentration using the GraphPad Prism 6.0 software.

Row | SMILES | EC50 (THP-1, Table 4C) | EC50 (THP-1, Table 4A) | EC50 (THP-1, Table 4B)
1 | CCn1nc(C)cc1C(=O)Nc1nc2cc(C(N)=O)cc(OCCN3CCOCC3)c2n1C/C=C/Cn1c2nc(-c3cc(C)nn3CC)ncc2c2cc(C(N)=O)cc(OCCCOC)c21 [Example S43, (E)-9-(4-(5-carbamoyl-2-(1-ethyl-3-methyl-1H-pyrazole-5-carboxamido)-7-(2-morpholinoethoxy)-1H-benzo[d]imidazol-1-yl)but-2-en-1-yl)-2-(1-ethyl-3-methyl-1H-pyrazol-5-yl)-8-(3-methoxypropoxy)-9H-pyrimido[4,5-b]indole-6-carboxamide] | 0.05 to 0.2 µM |  | 
2 | CCn1nc(C)cc1C(=O)Nc1nc2cc(C(N)=O)cc(C)c2n1C/C=C/Cn1c2ccc(C(N)=O)cc2c2ccc(-c3cc(C)nn3CC)nc21 [Example S5, (E)-9-(4-(5-carbamoyl-2-(1-ethyl-3-methyl-1H-pyrazole-5-carboxamido)-7-methyl-1H-benzo[d]imidazol-1-yl)but-2-en-1-yl)-2-(1-ethyl-3-methyl-1H-pyrazol-5-yl)-9H-pyrido[2,3-b]indole-6-carboxamide] | 0.05 to 0.2 µM | ≤ 0.1 µM | < 1 µM
3 | CCn1nc(C)cc1C(=O)Nc1nc2cc(C(N)=O)cc(OCCCNS(=O)(=O)CCCC(=O)O)c2n1C/C=C/Cn1c2nc(-c3cc(C)nn3CC)ncc2c2cc(C(N)=O)cc(OCCCOC)c21 [Example S50, (E)-4-(N-(3-((5-carbamoyl-1-(4-(6-carbamoyl-2-(1-ethyl-3-methyl-1H-pyrazol-5-yl)-8-(3-methoxypropoxy)-9H-pyrimido[4,5-b]indol-9-yl)but-2-en-1-yl)-2-(1-ethyl-3-methyl-1H-pyrazole-5-carboxamido)-1H-benzo[d]imidazol-7-yl)oxy)propyl)sulfamoyl)butanoic acid] | ≤ 0.05 µM |  | 
4 | CCn1nc(C)cc1C(=O)Nc1nc2cc(C(N)=O)cc(OCCCNC(=O)NCC(=O)O)c2n1C/C=C/Cn1c2nc(-c3cc(C)nn3CC)ncc2c2cc(C(N)=O)cc(OCCCOC)c21 [Example S46, (E)-((3-((5-carbamoyl-1-(4-(6-carbamoyl-2-(1-ethyl-3-methyl-1H-pyrazol-5-yl)-8-(3-methoxypropoxy)-9H-pyrimido[4,5-b]indol-9-yl)but-2-en-1-yl)-2-(1-ethyl-3-methyl-1H-pyrazole-5-carboxamido)-1H-benzo[d]imidazol-7-yl)oxy)propyl)carbamoyl)glycine] | ≤ 0.05 µM |  | 
5 | CCn1nc(C)cc1C(=O)Nc1nc2cc(C(N)=O)cc(OCCCO)c2n1C/C=C/Cn1c2nc(-c3cc(C)nn3CC)ncc2c2cc(C(N)=O)cc(OCCCNC(=O)OCCC(=O)O)c21 [Example S54, (E)-3-(3-(6-carbamoyl-9-(4-(5-carbamoyl-2-(1-ethyl-3-methyl-1H-pyrazole-5-carboxamido)-7-(3-hydroxypropoxy)-1H-benzo[d]imidazol-1-yl)but-2-enyl)-2-(1-ethyl-3-methyl-1H-pyrazol-5-yl)-9H-pyrimido[4,5-b]indol-8-yloxy)propylcarbamoyloxy)propanoic acid] | ≤ 0.05 µM |  | 
6 | CCn1nc(C)cc1C(=O)Nc1nc2cc(C(N)=O)cc(C)c2n1C/C=C/Cn1c2ccc(C(N)=O)cc2c2cc(F)c(-c3cc(C)nn3CC)nc21 [Example S24, (E)-9-(4-(5-carbamoyl-2-(1-ethyl-3-methyl-1H-pyrazole-5-carboxamido)-7-methyl-1H-benzo[d]imidazol-1-yl)but-2-en-1-yl)-2-(1-ethyl-3-methyl-1H-pyrazol-5-yl)-3-fluoro-9H-pyrido[2,3-b]indole-6-carboxamide] | ≤ 0.05 µM | ≤ 0.1 µM | < 0.2 µM
7 | CCn1nc(C)cc1C(=O)Nc1nc2cc(C(N)=O)cc(OCCCN3CCOCC3)c2n1C/C=C/Cn1c2nc(-c3cc(C)nn3CC)ncc2c2cc(C(N)=O)cc(OCCCOC)c21 [Example S27, (E)-9-(4-(5-carbamoyl-2-(1-ethyl-3-methyl-1H-pyrazole-5-carboxamido)-7-(3-morpholinopropoxy)-1H-benzo [d]imidazol-1-yl)but-2-en-1-yl)-2-(1-ethyl-3-methyl-1H-pyrazol-5-yl)-8-(3-methoxypropoxy)-9H-pyrimido[4,5-b]indole-6-carboxamide] | ≤ 0.05 µM | ≤ 0.1 µM | < 0.2 µM
8 | CCn1nc(C)cc1C(=O)Nc1nc2cc(C(N)=O)cc(OC)c2n1C/C=C/Cn1c(NC(=O)c2cc(C)nn2CC)nc2cc(C(N)=O)cc(OCCCNC(=O)CCN)c21 [Example S32, (E)-7-(3-(3-aminopropanamido)propoxy)-1-(4-(5-carbamoyl-2-(1-ethyl-3-methyl-1H-pyrazole-5-carboxamido)-7-methoxy-1H-benzo[d]imidazol-1-yl)but-2-en-1-yl)-2-(1-ethyl-3-methyl-1H-pyrazole-5-carboxamido)-1H-benzo [d]imidazole-5-carboxamide] |  | ≤ 0.1 µM | 

Next, values leading:

Row | EC50 (THP-1, Table 4C) | EC50 (THP-1, Table 4A) | EC50 (THP-1, Table 4B) | SMILES
9 | ≤ 0.05 µM | ≤ 0.1 µM | < 0.2 µM | CCn1nc(C)cc1C(=O)Nc1nc2cc(C(N)=O)cc(OCCCO)c2n1C/C=C/Cn1c2nc(-c3cc(C)nn3CC)ncc2c2cc(C(N)=O)cc(OCCCOC)c21 [Example S22, (E)-9-(4-(5-carbamoyl-2-(1-ethyl-3-methyl-1H-pyrazole-5-carboxamido)-7-(3-hydroxypropoxy)-1H-benzo[d]imidazol-1-yl)but-2-en-1-yl)-2-(1-ethyl-3-methyl-1H-pyrazol-5-yl)-8-(3-methoxypropoxy)-9H-pyrimido[4,5-b]indole-6-carboxamide]
10 |  | ≤ 0.1 µM |  | CCn1nc(C)cc1C(=O)Nc1nc2cc(C(N)=O)c3ccoc3c2n1C/C=C/Cn1c2nc(-c3cc(C)nn3CC)ncc2c2cc(C(N)=O)cc(OCCCO)c21 [Example S69, (E)-1-(4-(6-carbamoyl-2-(1-ethyl-3-methyl-1H-pyrazol-5-yl)-8-(3-hydroxypropoxy)-9H-pyrimido[4,5-b]indol-9-yl)but-2-en-1-yl)-2-(1-ethyl-3-methyl-1H-pyrazole-5-carboxamido)-1H-benzofuro[6,7-d]imidazole-5-carboxamide]
11 |  | ≤ 0.1 µM |  | CCn1nc(C)cc1-c1ncc2c3cc(C(N)=O)cc(OC)c3n(C/C=C/Cn3c4nc(-c5cc(C)nn5CC)ncc4c4cc(C(N)=O)cc(OC)c43)c2n1 [Example S29, (E)-9,9′-(but-2-ene-1,4-diyl)bis(2-(1-ethyl-3-methyl-1H-pyrazol-5-yl)-8-methoxy-9H-pyrimido[4,5-b]inclole-6-carboxamide)]
12 | 0.05 to 0.2 µM |  |  | CCn1nc(C)cc1C(=O)Nc1nc2cc(C(N)=O)cc(OCCCNC(=O)[C@@H](N)CC(=O)O)c2n1C/C=C/Cn1c2nc(-c3cc(C)nn3CC)ncc2c2cc(C(N)=O)cc(OCCCOC)c21 [Example S47, (S,E)-3-amino-4-((3-((5-carbamoyl-1-(4-(6-carbamoyl-2-(1-ethyl-3-methyl-1H-pyrazol-5-yl)-8-(3-methoxypropoxy)-9H-pyrimido[4,5-b]indol-9-yl)but-2-en-1-yl)-2-(1-ethyl-3-methyl-1H-pyrazole-5-carboxamido)-1H-benzo[d]imidazol-7-yl)oxy)propyl)amino)-4-oxobutanoic acid]
13 | ≤ 0.05 µM | ≤ 0.1 µM | < 0.2 µM | CCn1nc(C)cc1C(=O)Nc1nc2cc(C(N)=O)cc(OCCCO)c2n1C/C=C/Cn1c2nc(-c3cc(C)nn3CC)ncc2c2cc(C(N)=O)cc(OC)c21 [Example S16, (E)-9-(4-(5-carbamoyl-2-(1-ethyl-3-methyl-1H-pyrazole-5-carboxamido)-7-(3-hydroxypropoxy)-1H-benzo[d]imidazol-1-yl)but-2-en-1-yl)-2-(1-ethyl-3-methyl-1H-pyrazol-5-yl)-8-methoxy-9H-pyrimido[4,5-b]indole-6-carboxamide]
14 | 0.05 to 0.2 µM |  |  | CCn1nc(C)cc1C(=O)Nc1nc2cc(C(N)=O)cc(OCCCN3CCN(C)CC3)c2n1C/C=C/Cn1c2nc(-c3cc(C)nn3CC)ncc2c2cc(C(N)=O)cc(OCCCOC)c21 [Example S36, (E)-9-(4-(5-carbamoyl-2-(1-ethyl-3-methyl-1H-pyrazole-5-carboxamido)-7-(3-(4-methylpiperazin-1-yl)propoxy)-1H-benzo[d]imidazol-1-yl)but-2-en-1-yl)-2-(1-ethyl-3-methyl-1H-pyrazol-5-yl)-8-(3-methoxypropoxy)-9H-pyrimido[4,5-b]indole-6-carboxamide]
15 | ≤ 0.05 µM | ≤ 0.1 µM | < 0.2 µM | CCn1nc(C)cc1C(=O)Nc1nc2cc(C(N)=O)cc(C)c2n1C/C=C/Cn1c2nc(-c3cc(C)nn3CC)ncc2c2cc(C(N)=O)cc(OCCCOC)c21 [Example S12, (E)-9-(4-(5-carbamoyl-2-(1-ethyl-3-methyl-1H-pyrazole-5-carboxamido)-7-methyl-1H-benzo[d]imidazol-1-yl)but-2-enyl)-2-(1-ethyl-3-methyl-1H-pyrazol-5-yl)-8-(3-methoxypropoxy)-9H-pyrimido[4,5-b]indole-6-carboxamide]
16 | ≤ 0.05 µM | ≤ 0.1 µM | < 0.2 µM | CCn1nc(C)cc1C(=O)Nc1nc2cc(C(N)=O)cc(C)c2n1C/C=C/Cn1c2nc(-c3cc(C)nn3CC)ncc2c2cc(C(N)=O)cc(OC)c21 [Example S10, (E)-9-(4-(5-carbamoyl-2-(1-ethyl-3-methyl-1H-pyrazole-5-carboxamido)-7-methyl-1H-benzo[d]imidazol-1-yl)but-2-enyl)-2-(1-ethyl-3-methyl-1H-pyrazol-5-yl)-8-methoxy-9H-pyrimido[4,5-b]indole-6-carboxamide]
